≈ marks a conversion by molar mass, not a printed value. Calls of active or inactive are those of the source.
Columns and labels:
Staphylococcus aureus [1] = experiment: Inhibition of FabB/FabF in methicillin-sensitive Staphylococcus aureus assessed as antibacterial activity after 16 hrs by agar dilution method
Staphylococcus aureus [2] = experiment: Inhibition of FabB/FabF in Staphylococcus aureus ATCC 29213 assessed as antibacterial activity after 16 hrs by agar dilution method
Staphylococcus aureus [3] = experiment: Inhibition of FabB/FabF in methicillin-resistant Staphylococcus aureus assessed as antibacterial activity after 16 hrs by agar dilution method
Staphylococcus aureus [4] = experiment: Inhibition of FabB/FabF in methicillin-resistant Staphylococcus aureus assessed as antibacterial activity at 5 ug/disk after 18 hrs by agar disk diffusion method
Staphylococcus aureus [5] = experiment: Antibacterial activity against methicillin-resistant Staphylococcus aureus infected in BALB/c mouse model of skin wound assessed as retainment of dermis layers at 2 mg administered topically as ointment twice daily for 7 days and measured and after 24 hrs by HE staining analysis; assay type: functional, organism-based
Staphylococcus aureus [6] = experiment: Antibacterial activity against methicillin-resistant Staphylococcus aureus infected in BALB/c mouse model of skin infection assessed as bacterial load in skin lesions at 2 mg administered topically as ointment twice daily for 7 days and measured at 24 hrs post last dose (7.9 +/- 0.9 x 10^8 CFU/g); assay type: functional
Staphylococcus aureus [7] = experiment: Antibacterial activity against methicillin-resistant Staphylococcus aureus infected in BALB/c mouse model of skin wound assessed as reduction in appearance of secondary scald at 2 mg administered topically as ointment twice daily for 7 days and measured after 24 hrs by visual inspection method; assay type: functional, organism-based
Staphylococcus aureus [8] = experiment: Antibacterial activity against methicillin-resistant Staphylococcus aureus infected in BALB/c mouse model of skin wound assessed as retainment of fat layers at 2 mg administered topically as ointment twice daily for 7 days and measured after 24 hrs by HE staining analysis; assay type: functional, organism-based
Staphylococcus aureus [9] = experiment: Antibacterial activity against methicillin-resistant Staphylococcus aureus infected in BALB/c mouse model of skin wound assessed as reduction in detachment of epidermis from dermis at 2 mg administered topically as ointment twice daily for 7 days and measured after 24 hrs by visual inspection method; assay type: functional, organism-based
Staphylococcus aureus [10] = experiment: Antibacterial activity against methicillin-resistant Staphylococcus aureus infected in C57BL/6J mouse model of peritonitis assessed as mouse survival at 10 mg/kg, ip dosed at 1 hr and 5 hrs post infection and measured for 7 days relative to control; assay type: functional
Staphylococcus aureus [11] = experiment: Antibacterial activity against methicillin-resistant Staphylococcus aureus infected in C57BL/6J mouse model of peritonitis assessed as mouse survival at 20 mg/kg, ip dosed at 1 hr and 5 hrs post infection and measured for 7 days relative to control; assay type: functional
Staphylococcus aureus [12] = experiment: Inhibition of FabB/FabF in methicillin-resistant Staphylococcus aureus assessed as antibacterial activity at 2 ug/disk after 18 hrs by agar disk diffusion method

| Compound | MIC (Staphylococcus aureus [1]) | MIC (Staphylococcus aureus [2]) | MIC (Staphylococcus aureus [3]) | antibacterial activity (disk diffusion, qualitative) (Staphylococcus aureus [4]) | further results |
| --- | --- | --- | --- | --- | --- |
| C[C@]12C[C@]34C[C@H]1C[C@H](O2)[C@H]3[C@](C)(CCC(=O)Nc1c(O)ccc(C(=O)O)c1O)C(=O)[C@@H]1O[C@@H]14 | 16 µg/mL (≈ 35 µM) | 32 µg/mL (≈ 69.9 µM) | 16 µg/mL (≈ 35 µM) |  |  |
| CC(=O)NC[C@H]1CN(c2ccc(N3CCOCC3)c(F)c2)C(=O)O1 | 1 µg/mL (≈ 2.96 µM) | 1 µg/mL (≈ 2.96 µM) | 1 µg/mL (≈ 2.96 µM) | Active |  |
| C[C@]12C[C@@]34C=C(Sc5ccc(I)cc5)C(=O)[C@@](C)(CCC(=O)Nc5c(O)ccc(C(=O)O)c5O)[C@@H]3[C@H](C[C@@H]1C4)O2 | 0.25 µg/mL (≈ 0.37 µM) | 0.5 µg/mL (≈ 0.74 µM) | 0.25 µg/mL (≈ 0.37 µM) | Active |  |
| C[C@]12C[C@@]34C=C(Sc5cccc(C#Cc6ccccn6)c5)C(=O)[C@@](C)(CCC(=O)Nc5c(O)ccc(C(=O)O)c5O)[C@@H]3[C@H](C[C@@H]1C4)O2 | 0.5 µg/mL (≈ 0.768 µM) | 0.5 µg/mL (≈ 0.768 µM) | 0.5 µg/mL (≈ 0.768 µM) | Active |  |
| C/C(=C\C(=O)OCCCCCCCCC(=O)O)C[C@@H]1OC[C@H](C[C@@H]2O[C@H]2[C@@H](C)[C@H](C)O)[C@@H](O)[C@H]1O [MUPIROCIN] |  |  |  |  | Activity (Staphylococcus aureus [5]): Active; Activity (Staphylococcus aureus [6]): 6.5 ×10⁶ CFU/g; Activity (Staphylococcus aureus [7]): Active; Activity (Staphylococcus aureus [8]): Active; Activity (Staphylococcus aureus [9]): Active |
| C[C@]12C[C@@]34C=C(Sc5ccc(F)cc5)C(=O)[C@@](C)(CCC(=O)Nc5c(O)ccc(C(=O)O)c5O)[C@@H]3[C@H](C[C@@H]1C4)O2 | 0.5 µg/mL (≈ 0.881 µM) | 1 µg/mL (≈ 1.76 µM) | 0.5 µg/mL (≈ 0.881 µM) | Active |  |
| C[C@]12C[C@@]34C=C(Sc5cccc(I)c5)C(=O)[C@@](C)(CCC(=O)Nc5c(O)ccc(C(=O)O)c5O)[C@@H]3[C@H](C[C@@H]1C4)O2 | 0.5 µg/mL (≈ 0.74 µM) | 1 µg/mL (≈ 1.48 µM) | 0.5 µg/mL (≈ 0.74 µM) | Active |  |
| C[C@]12C[C@@]34C=C(Sc5ccccn5)C(=O)[C@@](C)(CCC(=O)Nc5c(O)ccc(C(=O)O)c5O)[C@@H]3[C@H](C[C@@H]1C4)O2 | 2 µg/mL (≈ 3.63 µM) | 2 µg/mL (≈ 3.63 µM) | 2 µg/mL (≈ 3.63 µM) | Active | Survival (Staphylococcus aureus [10]): inactive |
| C[C@]12C[C@@]34C=C(SCc5ccccc5)C(=O)[C@@](C)(CCC(=O)Nc5c(O)ccc(C(=O)O)c5O)[C@@H]3[C@H](C[C@@H]1C4)O2 | 0.5 µg/mL (≈ 0.887 µM) | 0.5 µg/mL (≈ 0.887 µM) | 0.5 µg/mL (≈ 0.887 µM) | Active | survival at 10 mg/kg (Staphylococcus aureus [10]): > 60%; survival at 20 mg/kg (Staphylococcus aureus [11]): 80% |
| C[C@]12C[C@@]34C=C(Sc5cccs5)C(=O)[C@@](C)(CCC(=O)Nc5c(O)ccc(C(=O)O)c5O)[C@@H]3[C@H](C[C@@H]1C4)O2 |  |  |  | Active |  |
| C[C@]12C[C@@]34C=C(Sc5ccc(-c6ccc(C=O)cc6)cc5)C(=O)[C@@](C)(CCC(=O)Nc5c(O)ccc(C(=O)O)c5O)[C@@H]3[C@H](C[C@@H]1C4)O2 |  |  |  | Active |  |
| C[C@]12C[C@@]34C=C(Sc5cccc(C#CC6(O)CCCCC6)c5)C(=O)[C@@](C)(CCC(=O)Nc5c(O)ccc(C(=O)O)c5O)[C@@H]3[C@H](C[C@@H]1C4)O2 | 0.25 µg/mL (≈ 0.372 µM) | 0.25 µg/mL (≈ 0.372 µM) | 0.25 µg/mL (≈ 0.372 µM) | Active |  |
| C[C@]12C[C@@]34C=C(Sc5cccc(C#Cc6ccc(F)cc6)c5)C(=O)[C@@](C)(CCC(=O)Nc5c(O)ccc(C(=O)O)c5O)[C@@H]3[C@H](C[C@@H]1C4)O2 |  |  |  | Active |  |
| C[C@]12C[C@@]34C=C(Sc5ccc(-c6ccco6)cc5)C(=O)[C@@](C)(CCC(=O)Nc5c(O)ccc(C(=O)O)c5O)[C@@H]3[C@H](C[C@@H]1C4)O2 |  |  |  | Active |  |
| C[C@]12C[C@@]34C=C(Sc5cccc(/C=C/C(=O)OCCO)c5)C(=O)[C@@](C)(CCC(=O)Nc5c(O)ccc(C(=O)O)c5O)[C@@H]3[C@H](C[C@@H]1C4)O2 |  |  |  | Active |  |
| CNC(=O)/C=C/c1ccc(SC2=C[C@]34C[C@H]5C[C@H](O[C@@]5(C)C3)[C@H]4[C@](C)(CCC(=O)Nc3c(O)ccc(C(=O)O)c3O)C2=O)cc1 |  |  |  | Active |  |
| C[C@]12C[C@@]34C=C(Sc5cccc(-c6ccccc6)c5)C(=O)[C@@](C)(CCC(=O)Nc5c(O)ccc(C(=O)O)c5O)[C@@H]3[C@H](C[C@@H]1C4)O2 |  |  |  | Active |  |
| CNC(=O)/C=C/c1cccc(SC2=C[C@]34C[C@H]5C[C@H](O[C@@]5(C)C3)[C@H]4[C@](C)(CCC(=O)Nc3c(O)ccc(C(=O)O)c3O)C2=O)c1 |  |  |  | Active |  |
| CCCSC1=C[C@]23C[C@H]4C[C@H](O[C@@]4(C)C2)[C@H]3[C@](C)(CCC(=O)Nc2c(O)ccc(C(=O)O)c2O)C1=O | 0.5 µg/mL (≈ 0.97 µM) | 1 µg/mL (≈ 1.94 µM) | 0.5 µg/mL (≈ 0.97 µM) | Active |  |
| COC(=O)/C=C/c1cccc(SC2=C[C@]34C[C@H]5C[C@H](O[C@@]5(C)C3)[C@H]4[C@](C)(CCC(=O)Nc3c(O)ccc(C(=O)O)c3O)C2=O)c1 |  |  |  | Active |  |
| Cc1ccc(SC2=C[C@]34C[C@H]5C[C@H](O[C@@]5(C)C3)[C@H]4[C@](C)(CCC(=O)Nc3c(O)ccc(C(=O)O)c3O)C2=O)cc1 | 0.25 µg/mL (≈ 0.444 µM) | 0.5 µg/mL (≈ 0.887 µM) | 0.25 µg/mL (≈ 0.444 µM) | Active | survival at 10 mg/kg (Staphylococcus aureus [10]): > 60%; inhibition (Staphylococcus aureus [12]): Active; survival at 20 mg/kg (Staphylococcus aureus [11]): 80% |
| CC(C)(C)OC(=O)/C=C/c1cccc(SC2=C[C@]34C[C@H]5C[C@H](O[C@@]5(C)C3)[C@H]4[C@](C)(CCC(=O)Nc3c(O)ccc(C(=O)O)c3O)C2=O)c1 |  |  |  | Active |  |
| COc1ccc(SC2=C[C@]34C[C@H]5C[C@H](O[C@@]5(C)C3)[C@H]4[C@](C)(CCC(=O)Nc3c(O)ccc(C(=O)O)c3O)C2=O)cc1 |  |  |  | Active |  |

Source: ChEMBL document CHEMBL4359841, “Late-Stage Functionalization of Platensimycin Leading to Multiple Analogues with Improved Antibacterial Activity in Vitro and in Vivo” (2019)
